We go through two compounds from patent publication US20240299393A1, “SMALL MOLECULE DISRUPTORS OF PROTEIN INTERACTIONS IN HISTONE DEACETYLASE COMPLEXES” (Dana-Farber Cancer Institute, Inc., priority 2021, published 2024).

The structures appear in SMILES notation.

For the assay, the system named is human neuroblastoma SK-N-BE(2)-C cells. Put plainly: Single-cell RNA-seq in neuroblastoma cells. It counts as cell-based. Conditions: 1 μM TSA, 25 μM E6R, 16 h. Here is the method:
Cells were grown in DMEM media supplemented with 10% FBS+PS in a 5% CO2 incubator at 37° C. […] Cells were harvested by incubating them in TryplE for 10 min. Cells were spun down for 5 min at 300 g, and the supernatant was removed. Cells were counted via hemocytometer to 20,000 cells and resuspended in 200 μL of media.
High-throughput scRNA-seq was performed using the Seq-Well S^3 platform as previously described [Gierahn et al 2017, Hughes et al 2020]. Briefly, 20,000 cells were applied to the surface of each Seq-Well array which had been preloaded with uniquely barcoded poly(dT) mRNA capture beads (Chemgenes). Following cell loading, arrays were washed with RPMI and then sealed with a polycarbonate membrane and placed in a 37° C. incubator for 30 min. After membrane sealing, the arrays were submerged in a lysis buffer (5 M guanidine thiocyanate, 10 mM EDTA, 0.1% β-mercaptoethanol, 0.1% Sarkosyl) for 20 min, and subsequently incubated in a 2 M NaCl hybridization buffer for 40 min to promote hybridization of the mRNA to the bead-bound capture oligos. Next, the beads were removed from the arrays, and they were resuspended in a master mix for reverse transcription containing Maxima H Minus Reverse Transcriptase and buffer, dNTPs, RNase inhibitor, a template switch oligonucleotide, and PEG for 30 min at room temperature, and overnight at 52° C. with end-over-end rotation. […] Then, the eluted products were quantified using a Qubit. cDNA libraries were then created using Illumina Nextera XT DNA Library Preparation Kit. Library cleanup was performed using SPRI purification as described above and library concentration and size distribution was determined using a Qubit fluorometer and Agilent TapeStation. Libraries for each sample were sequenced on a NextSeq 500 and a Nextseq 2000 with the following read structures: read 1: 21 bp; read 2: 50 bp; and index 1: 8 bp, and read 1: 26 bp; read 2: 50 bp; and index 1: 8 bp respectively. For each library 21 bases were sequenced in read 1, containing the cell barcode (12 bp) information and a unique molecular identifier (UMII, 8 bp), whereas 50 bases were obtained for the read 2 sequence. After sequencing, reads were demultiplexed using Illumina bcl2fastq (v2.20.0.422) and the resulting FASTQs were concatenated and aligned to the human “GRCh38-2020-A” reference genome using StarSolo alignment pipeline (v2.7.9a) on Terra.
Subsequently, low quality cells were filtered out, including cells with fewer than 200 unique genes, greater than 9,000 unique genes, and greater than 40% mitochondrial reads, resulting in 46,751 cells and 25,468 genes. […] Differentially expressed genes were determined using the FindMarkers function on Seurat with “test.use=MAST” and default parameters. […]

Consider `C[C@@H](NC(=O)c1c(O)n2ccccc2nc1=O)c1ccccc1` [E6R, 4-hydroxy-2-oxo-N—((R)-1-phenylethyl)-3,4-dihydro-2H-pyrido[, 2-a]pyrimidine-3-carboxamide], for which the “genes also downregulated by scRNA-seq, among 22 downregulated in bulk RNA-seq” value was 5 genes and the “genes also upregulated in scRNA-seq, among 65 upregulated in bulk RNA-seq” value is reported as 22 genes.

In the case of `CC(/C=C/C(=O)NO)=C\[C@@H](C)C(=O)c1ccc(N(C)C)cc1` [TSA, trichostatin A], the “genes also downregulated by scRNA-seq, among 22 downregulated in bulk RNA-seq” value is 13 genes and the “genes also upregulated in scRNA-seq, among 65 upregulated in bulk RNA-seq” value was 43 genes.
